Measurements reported in patent US20250223276A1, “Substituted Pyrrolidinyl And Piperidinyl Compounds And Related Methods Of Treatment” (Alkermes, Inc., priority 2022, published 2025).

Biological target: T1, human orexin-2 receptor (OX2R) (Homo sapiens, UniProt O43614)
T1 construct: expressed in transfected cells
T1 sequence (O43614 1-444): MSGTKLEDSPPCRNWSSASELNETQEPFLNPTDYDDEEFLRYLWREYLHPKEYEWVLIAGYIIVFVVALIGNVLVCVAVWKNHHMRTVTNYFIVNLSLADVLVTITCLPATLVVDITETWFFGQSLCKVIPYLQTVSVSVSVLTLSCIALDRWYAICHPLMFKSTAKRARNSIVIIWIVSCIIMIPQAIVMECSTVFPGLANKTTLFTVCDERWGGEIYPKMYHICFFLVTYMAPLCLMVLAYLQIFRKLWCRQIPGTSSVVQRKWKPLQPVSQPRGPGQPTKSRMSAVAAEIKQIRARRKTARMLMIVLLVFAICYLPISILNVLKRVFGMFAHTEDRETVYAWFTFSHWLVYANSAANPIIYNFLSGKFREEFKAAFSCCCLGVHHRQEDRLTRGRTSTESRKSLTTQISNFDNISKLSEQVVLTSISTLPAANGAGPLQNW
Test: Human OX2R IP1 assay
Type: cell-based
Conditions: T-Rex CHO cells stably overexpressing human OX2R; IP1 (inositol monophosphate) accumulation, HTRF; 1 hr at 37 degrees C
Protocol: T-Rex CHO cells stably overexpressing the human orexin-2 receptor (OX2R) are induced overnight with 1 μg/mL of doxycycline in a T225 flask. 24 hours post induction, cells are lifted with accutase and plated into a 384-well proxy plate at 30,000 cells/well. Cells are then treated with different test compounds in 1× stimulation buffer containing 10 mM Hepes, 1 mM CaCl2), 0.5 mM MgCl2, 4.2 mM KCl, 146 mM NaCl, 5.5 mM glucose, and 50 mM LiCl, pH 7.4, for 1 hr at 37 degrees C. Following incubation, the reaction is terminated by the addition of detection mix, which is composed of IP1-d2 and anti-IP1-cryptate diluted in lysis buffer as well as 1× stimulation buffer. The plates are allowed to incubate for 1 hour at room temperature and are then read in the En Vision® multimode plate reader, measuring inositol phosphate levels.
Cisbio IP1 is a cell-based functional assay quantifying the accumulation of inositol monophosphate (IP), a metabolite released as a result of orexin 2 receptor activation through the phospholipase C-Gq signaling pathway. This is a competitive immunoassay in which the IP1 produced by the cells upon receptor activation competes with the IP1 analog coupled to the d2 fluorophore (acceptor) for binding to an anti-IP1 monoclonal antibody labeled with Eu cryptate (donor). The measured HTRF-FRET based signal is inversely proportional to the IP1 concentration produced.
The EC50 values reported in Table 2 were obtained according to the human OX2R IP1 assay described above. Data are the mean EC50 values±S.E.M.

EC50 [nM] | Structure (SMILES)
< 100 | CN(C)S(=O)(=O)N[C@H]1CCN(C(=O)OCC(F)F)C[C@H]1CO[C@H]1CC[C@@H](c2cccc(F)c2)CC1 [Compound 48]
> 1000 | CN1CCN(S(=O)(=O)N[C@H]2CCN(c3cccnn3)C[C@H]2CO[C@H]2CC[C@@H](c3cccc(F)c3)CC2)CC1 [Compound 24]
> 1000 | CC(C)N(C)[C@@H]1CCN(S(=O)(=O)N[C@H]2CCN(c3cccnn3)C[C@H]2CO[C@H]2CC[C@@H](c3cccc(F)c3)CC2)C1 [Compound 57]
> 1000 | O=S(=O)(N[C@H]1CCN(c2cccnn2)C[C@H]1CO[C@H]1CC[C@@H](c2cccc(F)c2)CC1)N1CCOCC1 [Compound 15]
< 100 | CNS(=O)(=O)N[C@H]1CCN(c2cccnn2)C[C@H]1CO[C@H]1CC[C@@H](c2cccc(F)c2)CC1 [Compound 3]
> 1000 | CN(C)S(=O)(=O)N[C@H]1CCN(C(=O)C2CCC(F)(F)C2)C[C@H]1CO[C@H]1CC[C@@H](c2cccc(F)c2)CC1 (stereo partly shown) [Compound 13]
> 1000 | CN(CCF)S(=O)(=O)N[C@H]1CCN(c2cccnn2)C[C@H]1CO[C@H]1CC[C@@H](c2cccc(F)c2)CC1 [Compound 64]
> 1000 | COC(=O)N1CC[C@H](NS(=O)(=O)N(C)C)[C@H](CO[C@H]2CC[C@@H](c3cccc(F)c3)CC2)C1 [Compound 16]
< 100 | CN(C)S(=O)(=O)N[C@H]1CCN(C(=O)N2CCC(F)(F)C2)C[C@H]1CO[C@H]1CC[C@@H](c2cccc(F)c2)CC1 [Compound 61]
> 1000 | CN(C)S(=O)(=O)N[C@H]1CCN(C(=O)c2ccnn2C)C[C@H]1CO[C@H]1CC[C@@H](c2cccc(F)c2)CC1 [Compound 49]
< 100 | O=S(=O)(N[C@H]1CCN(c2cccnn2)C[C@H]1CO[C@H]1CC[C@@H](c2cccc(F)c2)CC1)C1CC1 [Compound 10]
> 1000 | CCN(CC)S(=O)(=O)N[C@H]1CCN(c2cccnn2)C[C@H]1CO[C@H]1CC[C@@H](c2cccc(F)c2)CC1 [Compound 14]
< 100 | CN(C)S(=O)(=O)N[C@H]1CCN(C(=O)C2(F)CC2)C[C@H]1CO[C@H]1CC[C@@H](c2cccc(F)c2)CC1 [Compound 47]
> 1000 | CN1CCCC1C(=O)N1CC[C@H](NS(=O)(=O)N(C)C)[C@H](CO[C@H]2CC[C@@H](c3cccc(F)c3)CC2)C1 (stereo partly shown) [Compound 51]
> 1000 | CN(C)S(=O)(=O)N[C@H]1CCN(C(=O)OC2CC2)C[C@H]1CO[C@H]1CC[C@@H](c2cccc(F)c2)CC1 [Compound 60]
> 1000 | O=S(=O)(N[C@H]1CCN(c2cccnn2)C[C@H]1CO[C@H]1CC[C@@H](c2cccc(F)c2)CC1)N1CC2(COC2)C1 [Compound 34]
> 1000 | CN(C)S(=O)(=O)N[C@H]1CCN(C(=O)OCC2(F)CCC2)C[C@H]1CO[C@H]1CC[C@@H](c2cccc(F)c2)CC1 [Compound 66]
> 1000 | CC1CN(S(=O)(=O)N[C@H]2CCN(c3cccnn3)C[C@H]2CO[C@H]2CC[C@@H](c3cccc(F)c3)CC2)C1 [Compound 23]
> 1000 | O=S(=O)(N[C@H]1CCN(c2cccnn2)C[C@H]1CO[C@H]1CC[C@@H](c2cccc(F)c2)CC1)N1CC(CF)C1 [Compound 28]
> 1000 | CN(C)S(=O)(=O)N[C@H]1CCN(C(=O)C2CNC(=O)C2)C[C@H]1CO[C@H]1CC[C@@H](c2cccc(F)c2)CC1 (stereo partly shown) [Compound 52]
100 to 1000 | O=S(=O)(N[C@H]1CCN(c2cccnn2)C[C@H]1CO[C@H]1CC[C@@H](c2cccc(F)c2)CC1)N1CCC1 [Compound 8]
< 100 | O=S(=O)(N[C@H]1CCN(c2cccnn2)C[C@H]1CO[C@H]1CC[C@@H](c2cccc(F)c2)CC1)C(F)F [Compound 11]
< 100 | CN(C)S(=O)(=O)N[C@H]1CCN(C(=O)[C@H]2C[C@H](F)C2)C[C@H]1CO[C@H]1CC[C@@H](c2cccc(F)c2)CC1 [Compound 54]
> 1000 | CN(C)S(=O)(=O)N[C@H]1CCN(C(=O)OCC2(F)CC2)C[C@H]1CO[C@H]1CC[C@@H](c2cccc(F)c2)CC1 [Compound 58]
> 1000 | COCCN(C)S(=O)(=O)N[C@H]1CCN(c2cccnn2)C[C@H]1CO[C@H]1CC[C@@H](c2cccc(F)c2)CC1 [Compound 63]
< 100 | CN(C)S(=O)(=O)N[C@H]1CCN(C(=O)c2cncs2)C[C@H]1CO[C@H]1CC[C@@H](c2cccc(F)c2)CC1 [Compound 45]

EC50 [nM] | Structure (SMILES)
> 1000 | CN1CC(NS(=O)(=O)N[C@H]2CCN(c3cccnn3)C[C@H]2CO[C@H]2CC[C@@H](c3cccc(F)c3)CC2)C1 [Compound 33]
> 1000 | O=S(=O)(N[C@H]1CCN(c2cccnn2)C[C@H]1CO[C@H]1CC[C@@H](c2cccc(F)c2)CC1)N1CCCC1 [Compound 26]
> 1000 | O=S(=O)(N[C@H]1CCN(c2cccnn2)C[C@H]1CO[C@H]1CC[C@@H](c2cccc(F)c2)CC1)N1CC(C(F)(F)F)C1 [Compound 22]
> 1000 | O=S(=O)(N[C@H]1CCN(c2cccnn2)C[C@H]1CO[C@H]1CC[C@@H](c2cccc(F)c2)CC1)N1CC(Cl)C1 [Compound 31]
> 1000 | CN1CC(OC(=O)N2CC[C@H](NS(=O)(=O)N(C)C)[C@H](CO[C@H]3CC[C@@H](c4cccc(F)c4)CC3)C2)C1 [Compound 59]
100 to 1000 | CN(C)S(=O)(=O)N[C@H]1CCN(C(=O)c2cncn2C)C[C@H]1CO[C@H]1CC[C@@H](c2cccc(F)c2)CC1 [Compound 46]
< 100 | CN(C)S(=O)(=O)N[C@H]1CCN(c2cccnn2)C[C@H]1CO[C@H]1CC[C@@H](c2cccc(F)c2)CC1 [Compound 2]
> 1000 | CN1CC2(C1)CN(S(=O)(=O)N[C@H]1CCN(c3cccnn3)C[C@H]1CO[C@H]1CC[C@@H](c3cccc(F)c3)CC1)C2 [Compound 27]
< 100 | CN(C)S(=O)(=O)N[C@H]1CCN(C(=O)N2CC(F)(F)C2)C[C@H]1CO[C@H]1CC[C@@H](c2cccc(F)c2)CC1 [Compound 62]
100 to 1000 | O=S(=O)(N[C@H]1CCN(c2cccnn2)C[C@H]1CO[C@H]1CC[C@@H](c2cccc(F)c2)CC1)N1CC(F)C1 [Compound 18]
> 1000 | O=S(=O)(N[C@H]1CCN(c2cccnn2)C[C@H]1CO[C@H]1CC[C@@H](c2cccc(F)c2)CC1)N1CC(C(F)F)C1 [Compound 25]
100 to 1000 | C[C@@H](OC(=O)N1CC[C@H](NS(=O)(=O)N(C)C)[C@H](CO[C@H]2CC[C@@H](c3cccc(F)c3)CC2)C1)C(F)F [Compound 65]
< 100 | CCS(=O)(=O)N[C@H]1CCN(c2cccnn2)C[C@H]1CO[C@H]1CC[C@@H](c2cccc(F)c2)CC1 [Compound 19]
< 100 | CC(C)S(=O)(=O)N[C@H]1CCN(c2cccnn2)C[C@H]1CO[C@H]1CC[C@@H](c2cccc(F)c2)CC1 [Compound 21]
> 1000 | O=S(=O)(N[C@H]1CCN(c2cccnn2)C[C@H]1CO[C@H]1CC[C@@H](c2cccc(F)c2)CC1)C1CCC1 [Compound 20]
100 to 1000 | CN(C1CC1)S(=O)(=O)N[C@H]1CCN(c2cccnn2)C[C@H]1CO[C@H]1CC[C@@H](c2cccc(F)c2)CC1 [Compound 9]
< 100 | CS(=O)(=O)N[C@H]1CCN(C(=O)C2(F)CCC2)C[C@H]1CO[C@H]1CC[C@@H](c2cccc(F)c2)CC1 [Compound 6]
< 100 | CN(C)S(=O)(=O)N[C@H]1CCN(C(=O)C2(F)CCC2)C[C@H]1CO[C@H]1CC[C@@H](c2cccc(F)c2)CC1 [Compound 4]
> 1000 | O=S(=O)(N[C@H]1CCN(c2cccnn2)C[C@H]1CO[C@H]1CC[C@@H](c2cccc(F)c2)CC1)N1CCC(F)(F)C1 [Compound 29]
100 to 1000 | O=S(=O)(NC1CC1)N[C@H]1CCN(c2cccnn2)C[C@H]1CO[C@H]1CC[C@@H](c2cccc(F)c2)CC1 [Compound 17]
< 100 | CN(C)S(=O)(=O)N[C@H]1CCN(C(=O)[C@H]2C[C@@H](F)C2)C[C@H]1CO[C@H]1CC[C@@H](c2cccc(F)c2)CC1 [Compound 53]
> 1000 | CN(C)C1CN(S(=O)(=O)N[C@H]2CCN(c3cccnn3)C[C@H]2CO[C@H]2CC[C@@H](c3cccc(F)c3)CC2)C1 [Compound 30]
> 1000 | O=C(NC1CCN(c2cccnn2)CC1CO[C@H]1CC[C@@H](c2cccc(F)c2)CC1)C(F)(F)F (stereo partly shown) [Compound 67]
< 100 | CN(C)S(=O)(=O)N[C@H]1CCN(C(=O)c2cnco2)C[C@H]1CO[C@H]1CC[C@@H](c2cccc(F)c2)CC1 [Compound 44]
< 100 | CN(C)S(=O)(=O)N[C@H]1CCN(C(=O)[C@@H]2CCOC2)C[C@H]1CO[C@H]1CC[C@@H](c2cccc(F)c2)CC1 [Compound 5]
< 100 | CS(=O)(=O)N[C@H]1CCN(C(=O)[C@H]2CCOC2)C[C@H]1CO[C@H]1CC[C@@H](c2cccc(F)c2)CC1 [Compound 7]
